From patent US20050171038A1, “Therapeutic combinations” (Agouron Pharmaceuticals, Inc., priority 2004, published 2005)

Legend:
[1] = system: HIV-1 RF; test: XTT dye reduction combination assay: protection of CEM-SS cells against HIV-1 RF infection, MacSynergy II analysis; assay type: cell-based; settings: 95% confidence interval
[2] = system: CEM-SS cells; test: Cytotoxicity of the combinations in the XTT dye reduction assay (mock infected CEM-SS cells)
Description: CEM-SS cells were added at 2×10^4 cells per well into 96-well plates containing 1.5-fold or 2.0-fold dilutions of test compounds, and were subsequently infected with HIV-1 RF at a multiplicity of infection of 0.470 or mock infected with medium only. Six days after infection, 50 μl of XTT (1 mg/ml XTT tetrazolium, […] phenazine methosulfate) were added to the wells and the plate was reincubated for four hours. Viability, as determined by the amount of XTT formazan produced, was quantified spectrophotometrically by absorbance at 450 nm. Optical density values were exported to a MacSynergy™ II (3, University of Michigan, Ann Arbor, Mich.) spreadsheet for subsequent analysis.

[3] = in combination with (4R)-N-allyl-3-{(2S,3S)-2-hydroxy-3-[(3-hydroxy-2-methylbenzoyl)amino]-4-phenylbutanoyl}-5,5-dimethyl-1,3-thiazolidine-4-carboxamide, mean of two or three independent experiments
[4] = in combination with N-ethyl-4,4-difluoro-1-{(2S,3S)-2-hydroxy-3-[(3-hydroxy-2,5-dimethylbenzoyl)amino]-4-phenylbutanoyl}-3,3-dimethyl-L-prolinamide, six days after infection of CEM-SS cells with HIV-1 RF, triplicate plates
[5] = in combination with N-ethyl-4,4-difluoro-1-{(2S,3S)-2-hydroxy-3-[(3-hydroxy-2,5-dimethylbenzoyl)amino]-4-phenylbutanoyl}-3,3-dimethyl-L-prolinamide
[6] = in combination with 4,4-difluoro-1-{(2S,3S)-2-hydroxy-3-[(3-hydroxy-2-methylbenzoyl)amino]-4-phenylbutanoyl}-3,3-dimethyl-N-(2,2,2-trifluoroethyl)-L-prolinamide, six days after infection of CEM-SS cells with HIV-1 RF, triplicate plates
[7] = in combination with 4,4-difluoro-1-{(2S,3S)-2-hydroxy-3-[(3-hydroxy-2-methylbenzoyl)amino]-4-phenylbutanoyl}-3,3-dimethyl-N-(2,2,2-trifluoroethyl)-L-prolinamide

Row | Structure (SMILES) | Antagonism (volume) [1, 3] [μM^2%] | Synergy (volume) [1, 3] [μM^2%] | Antagonism (volume) [1, 4] [μM^2%] | Synergy (volume) [1, 4] [μM^2%] | Cytotoxicity [2, 5] | Antagonism (volume) [1, 6] [μM^2%] | Synergy (volume) [1, 6] [μM^2%] | Cytotoxicity [2, 7]
1 | O=C1Nc2ccc(Cl)cc2[C@@](C#CC2CC2)(C(F)(F)F)O1 [Efavirenz, (S)-6-chloro-4-(cyclopropylethynyl)-1,4-dihydro-4-(trifluoromethyl)-2H-3,1-benzoxazin-2-one] | −1.1 | 130 | 0 | 78 | none |  |  | 
2 | Cc1ccnc2c1NC(=O)c1cccnc1N2C1CC1 [Nevirapine, 11-cyclopropyl-5,11-dihydro-4-methyl-6H-dipyrido[3,2-b:2′,3′-e][1,4]diazepin-6-one] | 0 | 203 | −2.4 | 153 | insignificant | 0 | 270 | none
3 | Cc1cccc(C)c1OCC(=O)N[C@@H](Cc1ccccc1)[C@@H](O)C[C@H](Cc1ccccc1)NC(=O)[C@H](C(C)C)N1CCCNC1=O (relative stereo) [Lopinavir, [1S-[1R*,(R*),3R*,4R*]]—N-[4-[[(2,6-dimethyl-phenoxy)acetyl]amino]-3-hydroxy-5-phenyl-1-(phenylmethyl)pentyl]tetrahydro-alpha-(1-methylethyl)-2-oxo-1(2H)-pyrimidineacetamide] |  |  |  |  |  | 0 | 261 | none
4 | CC(C)OC(=O)OCOP(=O)(CO[C@H](C)Cn1cnc2c(N)ncnc21)OCOC(=O)OC(C)C.O=C(O)/C=C/C(=O)O [Tenofovir, 9-[(R)-2-[[bis[[(isopropoxycarbonyl)oxy]methoxy]phosphinyl]methoxy]propyl]adenine fumarate (1:1)] | 0 | 125 | 0 | 14 | insignificant | −6.0 | 106 | none
5 | Cc1cn([C@H]2C[C@H](N=[N+]=[N-])[C@@H](CO)O2)c(=O)[nH]c1=O [Zidovudine, 3′-azido-3′-deoxythymidine] | −0.88 | 180 |  |  |  | 0 | 107 | 
6 | CC(C)c1nc(CN(C)C(=O)N[C@H](C(=O)N[C@@H](Cc2ccccc2)C[C@H](O)[C@H](Cc2ccccc2)NC(=O)OCc2cncs2)C(C)C)cs1 (relative stereo) [Ritonavir, 10-hydroxy-2-methyl-5-(1-methylethyl)-1-[2-(1-methylethyl)-4-thiazolyl]-3,6-dioxo-8,11-bis(phenylmethyl)-2,4,7,12-tetraazatridecan-13-oic acid, 5-thiazolylmethyl ester, [5S-(5R*,8R*,10R*,11R*)]] | −0.77 | 407 |  |  |  |  |  | 
7 | Cc1c(O)cccc1C(=O)N[C@@H](CSc1ccccc1)[C@H](O)CN1C[C@H]2CCCC[C@H]2C[C@H]1C(=O)NC(C)(C)C (relative stereo) [Nelfinavir, [3S-[2(2S*, 3S*),3-alpha,4abeta,8abeta]]-N-(1,1-dimethylethyl)decahydro-2-[2-hydroxy-3-[(3-hydroxy-2-methylbenzoyl)amino]-4-(phenylthio)butyl]-3-isoquinolinecarboxamide mono-methanesulfonate] | −13 | 197 | 0 | 229 | none | −0.28 | 653 | none
